Results reported in patent publication US9062051B2, “Compounds and pharmaceutical compositions thereof for the treatment of proliferative disorders” (GALAPAGOS NV, priority 2014, dated 2015).

Assays:
Assay type in all cases: biochemical
EphA2 = target: T1, EphA2 (UniProt Ref: P29317) (Homo sapiens, UniProt P29317); experiment: EphA2 assay (Reaction Biology HotSpot radioactive kinase assay); conditions: ATP 10 μM; read-out: EphA2 potency IC50
T1 construct: purchased Reaction Biology
Experimental: Inhibition of EphA2 (UniProt Ref: P29317) by a test compound is determined by a commercially available Reaction Biology proprietary nanoliter radioactive HotSpot^SM assay (Reaction Biology, One great valley parkway, Suite 2, Malvern Pa., 19355, USA). The principle of the assay consists of the measurement of incorporated ^33P into poly[Glu:Tyr] (4:1) (0.2 mg/mL) when the substrate is phosphorylated by the enzyme using [^33P]-γ-ATP and ATP (10 μM).
To determine the IC50, a serial dilution of compound is tested starting from 10, or 3 μM (highest dilution) with a 1/3 dilution.

Recombinant EphA7 = target: T2, Recombinant EphA7 (Homo sapiens, UniProt Q15375); experiment: EphA7 assay (33P incorporation into poly GT, filter plate); conditions: EphA7 potency; 0.15 μM ATP; read-out: IC50
T2 construct: purchased Carna 08-126
Experimental: (§1) The principle of the assay consists of the measurement of incorporated ^33P into the substrate poly GT when phosphorylated by the enzyme EphA7 using [^33P]-γ-ATP and ATP. Unincorporated ^33P is removed by loading the samples on a filter plate (using a harvester, Perkin Elmer) and 6 subsequent washing steps. ^33P incorporated in polyGT is measured on a Topcount after addition of microscint to the filter plates (Perkin Elmer).
Recombinant EphA7 (Carna Cat#08-126, 2 ng per well) was incubated with 0.1 mg/mL Poly(Glu,Tyr)sodium salt (4:1), MW 20 000-50 000 (Sigma catalog number P0275) in kinase reaction buffer (10 mM MOPS pH 7.2, 5 mM DTT, 0.01% Triton-X100, 5 mM MnCl2, 0.5 mM Na3VO4, 5 mM beta-glycerolphosphate), 0.15 μM non-radioactive ATP, 0.125 μCi/25 μl ^33P-gamma-ATP (Perkin Elmer, catalog number NEG602K) final concentrations with or without 5 μL containing test compound or vehicle (DMSO, 1% final concentration), in a total volume of 25 μL, in a polypropylene 96-well plate (Greiner, V-bottom). After 90 min at 30° C., reactions were stopped by adding of 25 μL/well of 150 mM phosphoric acid. All of the terminated kinase reaction was transferred to prewashed (75 mM phosphoric acid) 96 well filter plates (Perkin Elmer catalog number 6005177) using a cell harvester (Perkin Elmer). Plates were washed 6 times with 300 μL per well of a 75 mM phosphoric acid solution and the bottom of the plates was sealed. 40 μL/well of Microscint-20 was added, the top of the plates was sealed and readout was performed using the Topcount (Perkin Elmer). The ability of a test compound to inhibit the kinase activity was determined using counts per minutes (cpm) measured by the Topcount as:
(§2) Cpm (cpd): cpm determined for sample with test compound present
(§3) Cpm (control): cpm determined for sample with positive control inhibitor (10 μM staurosporine)
(§4) Cpm (vehicle): cpm determined in the presence of vehicle (1% DMSO)
(§5) Dose dilution series were prepared for the compounds enabling the testing of dose-response effects in the EphA7 assay and the calculation of the IC50 for each compound. Each compound was routinely tested at concentration of 20 μM followed by a 1/5 serial dilution, 10 points in a final concentration of 1% DMSO. When potency of compound series increased, more dilutions may be prepared and/or the top concentration may be lowered (e.g. 5 μM, 1 μM).

Recombinant EphB2 = target: T3, Recombinant EphB2 (Homo sapiens, UniProt P29323); experiment: EphB2 assay (33P incorporation into poly GT, filter plate); conditions: read-out: EphB2 potency IC50
T3 construct: purchased Carna 08-129
T3 sequence (P29323 19-986 isoform P29323-2 limits assumed): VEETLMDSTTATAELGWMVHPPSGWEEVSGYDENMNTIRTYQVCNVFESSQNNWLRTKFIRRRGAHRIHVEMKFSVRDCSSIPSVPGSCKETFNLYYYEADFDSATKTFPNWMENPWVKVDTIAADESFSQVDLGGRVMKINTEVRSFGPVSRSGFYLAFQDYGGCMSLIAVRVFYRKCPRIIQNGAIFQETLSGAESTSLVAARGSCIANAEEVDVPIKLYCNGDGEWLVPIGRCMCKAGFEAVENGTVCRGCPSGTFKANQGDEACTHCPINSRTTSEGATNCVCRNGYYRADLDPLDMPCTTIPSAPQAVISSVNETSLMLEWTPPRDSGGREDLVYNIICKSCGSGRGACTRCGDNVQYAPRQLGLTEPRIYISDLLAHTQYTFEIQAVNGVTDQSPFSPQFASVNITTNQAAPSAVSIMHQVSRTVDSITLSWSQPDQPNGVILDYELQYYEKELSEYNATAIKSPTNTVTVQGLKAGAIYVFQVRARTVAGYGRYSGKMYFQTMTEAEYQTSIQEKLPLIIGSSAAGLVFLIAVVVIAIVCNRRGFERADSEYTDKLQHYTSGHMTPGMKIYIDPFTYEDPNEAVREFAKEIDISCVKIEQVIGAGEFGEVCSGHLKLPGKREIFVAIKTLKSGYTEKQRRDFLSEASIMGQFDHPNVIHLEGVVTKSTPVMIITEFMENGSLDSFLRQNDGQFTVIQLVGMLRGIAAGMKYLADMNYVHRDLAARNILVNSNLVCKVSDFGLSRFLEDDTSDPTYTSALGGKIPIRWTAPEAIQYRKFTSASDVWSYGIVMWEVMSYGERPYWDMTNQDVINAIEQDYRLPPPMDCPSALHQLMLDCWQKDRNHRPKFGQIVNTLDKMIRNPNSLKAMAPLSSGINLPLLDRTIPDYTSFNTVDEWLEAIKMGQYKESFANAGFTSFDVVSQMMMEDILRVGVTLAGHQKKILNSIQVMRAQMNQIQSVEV
Experimental: as §1, with “EphB2” for “EphA7”
Recombinant EphB2 (Carna Cat#08-129, 0.6 ng per well) was incubated with 0.05 mg/mL Poly(Glu,Tyr)sodium salt (4:1), MW 20 000-50 000 (Sigma catalog number P0275) in kinase reaction buffer (10 mM MOPS pH 7.2, 5 mM DTT, 0.01% Triton-X100, 5 mM MnCl2, 0.5 mM Na3VO4, 5 mM beta-glycerolphosphate), 0.5 μM non-radioactive ATP, 0.25 μCi/25 μl ^33P-gamma-ATP (Perkin Elmer, catalog number NEG602K) final concentrations with or without 5 μL containing test compound or vehicle (DMSO, 1% final concentration), in a total volume of 25 μL, in a polypropylene 96-well plate (Greiner, V-bottom). After 45 min at 30° C., reactions were stopped by adding of 25 μL/well of 150 mM phosphoric acid. The experiment was then conducted as described for EphA7. The ability of a test compound to inhibit the kinase activity was determined using counts per minutes (cpm) measured by the Topcount as:
as §2, §3, §4
as §5, with “EphB2” for “EphA7”

T1 sequence (P29317 24-976): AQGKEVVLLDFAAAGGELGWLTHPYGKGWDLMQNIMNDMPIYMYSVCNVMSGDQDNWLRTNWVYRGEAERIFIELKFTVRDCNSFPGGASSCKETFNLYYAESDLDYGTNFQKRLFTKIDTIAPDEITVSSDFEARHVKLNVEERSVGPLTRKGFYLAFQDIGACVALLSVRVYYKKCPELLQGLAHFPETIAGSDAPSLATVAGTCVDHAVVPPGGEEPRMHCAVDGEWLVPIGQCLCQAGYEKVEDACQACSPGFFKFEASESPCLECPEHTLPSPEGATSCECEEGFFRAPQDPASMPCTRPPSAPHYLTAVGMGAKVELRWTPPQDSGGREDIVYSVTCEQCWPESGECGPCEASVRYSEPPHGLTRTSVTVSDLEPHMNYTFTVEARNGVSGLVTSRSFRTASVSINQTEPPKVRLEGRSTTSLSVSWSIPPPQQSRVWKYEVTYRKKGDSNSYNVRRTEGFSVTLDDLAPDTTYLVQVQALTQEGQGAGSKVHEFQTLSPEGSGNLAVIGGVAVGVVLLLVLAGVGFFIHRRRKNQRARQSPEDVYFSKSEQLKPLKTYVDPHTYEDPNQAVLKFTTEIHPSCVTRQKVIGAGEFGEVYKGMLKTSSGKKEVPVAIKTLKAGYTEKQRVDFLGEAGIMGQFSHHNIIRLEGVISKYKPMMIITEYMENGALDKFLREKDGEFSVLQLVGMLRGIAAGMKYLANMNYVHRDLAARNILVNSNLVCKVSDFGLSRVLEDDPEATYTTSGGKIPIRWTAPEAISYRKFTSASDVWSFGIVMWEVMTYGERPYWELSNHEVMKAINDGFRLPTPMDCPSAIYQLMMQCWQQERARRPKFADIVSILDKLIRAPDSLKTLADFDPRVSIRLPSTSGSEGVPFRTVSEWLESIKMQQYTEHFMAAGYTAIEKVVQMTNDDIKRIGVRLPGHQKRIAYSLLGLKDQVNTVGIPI
T2 sequence (Q15375 579-998 limits assumed): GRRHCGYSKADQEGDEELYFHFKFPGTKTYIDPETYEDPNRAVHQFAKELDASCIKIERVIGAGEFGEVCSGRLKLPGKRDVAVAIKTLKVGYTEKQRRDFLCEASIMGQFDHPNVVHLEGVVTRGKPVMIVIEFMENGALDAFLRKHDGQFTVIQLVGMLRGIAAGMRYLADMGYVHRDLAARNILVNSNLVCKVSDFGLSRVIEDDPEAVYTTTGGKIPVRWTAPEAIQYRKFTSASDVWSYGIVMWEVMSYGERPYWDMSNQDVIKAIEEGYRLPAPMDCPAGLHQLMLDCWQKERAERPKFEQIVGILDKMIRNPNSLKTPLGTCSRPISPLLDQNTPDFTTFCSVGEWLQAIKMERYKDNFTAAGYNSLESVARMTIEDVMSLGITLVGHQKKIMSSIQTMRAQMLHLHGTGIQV

IC50 (EphA2) [nM] | IC50 (Recombinant EphA7) [nM] | IC50 (Recombinant EphB2) [nM] | Structure (SMILES)
25 to 50 | > 1000 | 0.01 to 25 | Cc1cc(OCCN2CCOCC2)cc(C(=O)Nc2ccc(C)c(-c3ccc4c(C(C)O)n[nH]c4n3)c2)c1 (stereo not shown) [Compound 28, N-{3-[3-(1-Hydroxy-ethyl)-1H-pyrazolo[3,4-b]pyridin-6-yl]-4-methyl-phenyl}-3-methyl-5-(2-morpholin-4-yl-ethoxy)-benzamide]
0.01 to 25 | 250 to 500 | 0.01 to 25 | CCc1n[nH]c2nc(-c3cc(NC(=O)c4cc(C)cc(OCCN)c4)ccc3C)ccc12 [Compound 30, 3-(2-Amino-ethoxy)-N-[3-(3-ethyl-1H-pyrazolo[3,4-b]pyridin-6-yl)-4-methyl-phenyl]-5-methyl-benzamide]
0.01 to 25 | 0.01 to 250 | 0.01 to 25 | CCc1n[nH]c2nc(-c3cc(NC(=O)c4cc(C)cc(OCCCN)c4)ccc3C)ccc12 [Compound 31, 3-(3-Amino-propoxy)-N-[3-(3-ethyl-1H-pyrazolo[3,4-b]pyridin-6-yl)-4-methyl-phenyl]-5-methyl-benzamide]
 | > 1000 | 0.01 to 25 | COc1cc(OC)cc(C(=O)Nc2cnc(C)c(-c3ccc4c(C5CC5)n[nH]c4n3)c2)c1 [Compound 34, N-(5-(3-cyclopropyl-1H-pyrazolo[3,4-b]pyridin-6-yl)-6-methylpyridin-3-yl)-3,5-dimethoxybenzamide]
0.01 to 25 | 500 to 1000 | > 100 | CCc1n[nH]c2nc(-c3cc(NC(=O)c4cc(OCCN5CCOCC5)cc(C(F)(F)F)c4)ccc3C)ccc12 [Compound 36, N-[3-(3-Ethyl-1H-pyrazolo[3,4-b]pyridin-6-yl)-4-methyl-phenyl]-3-(2-morpholin-4-yl-ethoxy)-5-trifluoromethyl-benzamide]
0.01 to 25 | 250 to 500 | > 100 | CCc1n[nH]c2nc(-c3cc(NC(=O)c4cc(OC)cc(C5CC5)c4)cnc3C)ccc12 [Compound 38, 3-Cyclopropyl-N-[5-(3-ethyl-1H-pyrazolo[3,4-b]pyridin-6-yl)-6-methyl-pyridin-3-yl]-5-methoxy-benzamide]
 | > 1000 | > 100 | CCc1n[nH]c2nc(-c3cc(NC(=O)c4cc(OC)cc(OCCN5CCOCC5)c4)cnc3C)ccc12 [Compound 40, N-[5-(3-Ethyl-1H-pyrazolo[3,4-b]pyridin-6-yl)-6-methyl-pyridin-3-yl]-3-methoxy-5-(2-morpholin-4-yl-ethoxy)-benzamide]
50 to 100 | > 1000 | > 100 | CCc1n[nH]c2nc(-c3cc(NC(=O)c4cccc(C(F)(F)F)c4)cnc3C)ccc12 [Compound 42, N-[5-(3-Ethyl-1H-pyrazolo[3,4-b]pyridin-6-yl)-6-methyl-pyridin-3-yl]-3-trifluoromethyl-benzamide]
0.01 to 25 | 250 to 500 | 0.01 to 25 | CCc1n[nH]c2nc(-c3cc(NC(=O)c4cc(OC)cc(OCCCN)c4)ccc3C)ccc12 [Compound 45, 3-(3-Amino-propoxy)-N-[3-(3-ethyl-1H-pyrazolo[3,4-b]pyridin-6-yl)-4-methyl-phenyl]-5-methoxy-benzamide]
0.01 to 25 | 500 to 1000 | 25 to 50 | CCc1n[nH]c2nc(-c3cc(NC(=O)c4cc(OC)cc(OCCCN)c4)cnc3C)ccc12 [Compound 46, 3-(3-Amino-propoxy)-N-[5-(3-ethyl-1H-pyrazolo[3,4-b]pyridin-6-yl)-6-methyl-pyridin-3-yl]-5-methoxy-benzamide]
0.01 to 25 | > 1000 | 0.01 to 25 | Cc1ccc(NC(=O)c2cccc(C(F)(F)F)c2)cc1-c1ccc2c([C@@H](C)O)n[nH]c2n1 [Compound 56, N-{3-[3-((R)-1-Hydroxy-ethyl)-1H-pyrazolo[3,4-b]pyridin-6-yl]-4-methyl-phenyl}-3-trifluoromethyl-benzamide]
